Measured values taken from US12344610B2, “APOL1 inhibitors and methods of use” (Maze Therapeutics, Inc., priority 2022, dated 2025).

Key:
Assay type in all cases: cell-based
[1] = target: T1, APOL1 G2 (Homo sapiens, UniProt O14791, DEL388-389); experiment: APOL1-mediated calcium transport (calcium influx) assay, HEK T-REx/GCaMP6f/APOL1 G2 K6.3 cells, FLIPR TETRA; conditions: prevention of calcium influx; geometric mean of at least 2 assay runs; † = average of a technical replicate from a single assay run
T1 construct: expressed in transfected cells; host or cells: HEK293 T-REx clonal line stably expressing GCaMP6f (HEK T-REx/GCaMP6f/APOL1 G2 K6.3), doxycycline induced
T1 sequence (O14791 with tags, fused parts or gaps DEL388-389): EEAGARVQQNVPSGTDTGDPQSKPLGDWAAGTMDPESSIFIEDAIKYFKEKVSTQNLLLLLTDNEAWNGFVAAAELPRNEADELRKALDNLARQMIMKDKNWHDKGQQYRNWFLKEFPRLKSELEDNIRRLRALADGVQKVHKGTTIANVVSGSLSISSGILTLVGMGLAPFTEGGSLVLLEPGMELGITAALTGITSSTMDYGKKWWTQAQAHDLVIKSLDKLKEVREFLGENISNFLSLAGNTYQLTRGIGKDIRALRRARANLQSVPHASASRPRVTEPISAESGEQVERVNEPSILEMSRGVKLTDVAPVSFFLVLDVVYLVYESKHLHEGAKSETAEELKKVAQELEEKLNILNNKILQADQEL
Experimental: A HEK293 clonal cell line was generated to stably express GCaMP6f, a genetically encoded calcium indicator, and inducibly express APOL1 G2 (HEK T-REx/GCaMP6f/APOL1 G2 K6.3). Cells were maintained in the following standard complete medium: DMEM with 4.5 g/L glucose and sodium pyruvate (BioWhittaker, Lonza, BE12-614F), supplemented with 10% FBS Performance Plus (Gibco, 16000044), 1% penicillin-streptomycin (BioWhittaker, DE17-602E), 2 mM ultraglutamine-1 (BioWhittaker cat. BE 17-605/U1), 50 μg/mL Zeocin (InvivoGen, ant-zn), 2.5 μg/mL Blasticidin (InvivoGen, ant-bl-5), and 25 μg/mL Hygromycin (InvivoGen, ant-hg). Standard propagation conditions consisted of plating 9×10^6, 4×10^6, 2×10^6 cells in a T225 flasks to be processed after 2, 3, or 4 days, respectively.
A source plate was generated containing 20 serially diluted compounds in DMSO (duplicate 8-point dose response). Next, 0.8 μL of compounds were transferred from the source plate to a destination plate prefilled with 79.2 μL of Ca^2+ free Tyrode's buffer (130 mM NaCl, 5 mM KCl, 1 mM MgCl2, 5 mM NaHCO3, 20 mM HEPES at pH 7.4). The destination plate was placed on a plate shaker (5 seconds at 2000 rpm) to mix. […] All transfer and mixing steps were conducted with an CyBi®-Well dispenser.
Cells were split by gently washing with DPBS (Euroclone, ECB4004L), followed by a 5-minute incubation (humidified, 37° C. with 5% CO2) with trypsin-EDTA solution (Euroclone, ECB3052D). Detached cells were diluted with standard complete medium without selective agents, counted, and plated in a 384 MTP microplate (GR4332CPL, Twin Helix) (10,000 cells/well in 25 μl/well) using a MATRIX WellMate dispenser. Plates were placed into a humidified incubator (37° C. with 5% CO2) overnight. The following day, 20 μL of doxycycline (Sigma, D9891) at 20 ng/mL in standard complete medium was added to cells with a CyBi® Drop dispenser to induce APOL1 G2 expression. After a 6-hour incubation (humidified, 37° C. with 5% CO2), cells were washed 3 times with Ca^2+ free Tyrode's Buffer (130 mM NaCl, 5 mM KCl, 1 mM MgCl2, 5 mM NaHCO3, 20 mM HEPES at pH 7.4) using a BIOTEK Microplate washer, such that 10 μL of buffer remained in each well after the final wash. Assay plates were then stored at room temperature for 10 minutes. Next, 10 μL of diluted compounds were transferred to the assay plate from the 2× compound plate using a CyBi®-Well dispenser. Compound incubation was then carried out at room temperature for 10 minutes. The assay plate was transferred to the FLIPR^TETRA and 20 μL of 10 mM Ca^2+ (final concentration=5 mM) Tyrode's buffer was injected.
Unless otherwise specified, AC50 and values are reported as the geometric mean of at least 2 assay runs on separate days. Each run represents the average of a technical replicate, where each compound was assayed twice in the same plate. A superscript t symbol indicates a value from the average of a technical replicate from a single assay run, where each compound was assayed twice in the same plate.
The AC50 values in Table 39 below reflect the compound's ability to prevent calcium influx by inhibiting APOL1. […] Compounds in Table 39 are referred to by the corresponding Compound Number in Table 1, which is also referred to in the synthetic examples. When one or more of the numbered compounds are identified by stereochemistry (for example, (R)- or (S)-), the specific stereoisomer for which data is provided in Table 39 may be identified by the elution order of such compound as described in the synthetic examples. For example, Compounds 39 and 40 are associated with Step 5 of Example 13, where Compound 39 is the first eluting enantiomer, and Compound 40 is the second eluting enantiomer in the chiral separation of Compound 38. For Table 39 below, n/a represents “not available”.

[2] = system: HEK293 cells overexpressing APOL1 G2; experiment: APOL1 G2 HEK293 cell rescue assay (reversal of cell death caused by overexpression of APOL1); conditions: geometric mean of at least 2 assay runs, † = single assay run
Summary of the method: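 EC50 is the half-maximal effective concentration for reversing cell death driven by APOL1 G2 overexpression in HEK293 cells. Reported as geometric mean of at least 2 runs on separate days, each run averaging duplicate wells per plate; some values from a single run.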

[3] = system: HEK293 clonal cell line overexpressing APOL1 G1; experiment: APOL1 G1 HEK293 cell rescue assay (Example B3); conditions: geometric mean of at least 2 runs, † = single run, ¥ = concentration at 50% rescue estimated (no sigmoidal curve)
Summary of the method: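 HEK293 clonal line overexpressing APOL1 G1; EC50 is half-maximal reversal of APOL1-induced cell death. Values are the geometric mean of ≥2 runs on separate days, each run the average of duplicate wells. Where no sigmoidal curve could be fitted, the concentration giving 50% rescue was estimated.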

[4] = Homo sapiens, HEK293, HEK293 overexpressing APOL1 G2
[5] = Homo sapiens, HEK293, HEK293 clonal line overexpressing APOL1 G1
[6] = HEK293 clonal line overexpressing APOL1 G1

`CN1C(=O)C2(CCN(CCOc3ccc4c(c3)CCS4(=O)=O)CC2)c2ccccc21` [Compound 32, 5-(2-{1-methyl-2-oxo-1,2-dihydrospiro[indole-3,4′-piperidin]-1′-yl}ethoxy)-2,3-dihydro-1λ^6-benzothiophene-1,1-dione] was tested, and the AC50 [1] was 262 nM, the EC50 [2, 4] was 785 nM and the EC50 [3, 5] was 1860 nM.

`[2H]C([2H])([2H])N1C(=O)C2(CCN(CCOc3ccc(C4(S(=O)(=O)C(C)C)COC4)cc3)CC2)c2cc(Cl)ccc21` [Compound 414, 5-chloro-1-(^2H3)methyl-1′-(2-{4-[3-(propane-2-sulfonyl)oxetan-3-yl]phenoxy}ethyl)-1,2-dihydrospiro[indole-3,4′-piperidin]-2-one] was tested, and the AC50 [1] was 347 nM, the EC50 [2, 4] was 36.7 nM and the EC50 [3, 5] was 110 nM.

`CC(c1ccc(OCCN2CCC3(CC2)C(=O)Nc2ccc(Cl)cc23)cc1)S(C)(=O)=O` (stereo not drawn) [Compound 38, 5-chloro-1′-{2-[4-(1-methanesulfonylethyl)phenoxy]ethyl}-1,2-dihydrospiro[indole-3,4′-piperidin]-2-one] gave an AC50 [1] of 307 nM, an EC50 [2, 4] of 59 nM and an EC50 [3, 5] of 222 nM.

For `O=C1CCC2c3ccc(OCCN4CCC5(CC4)C(=O)Nc4ccc(Cl)cc45)cc3CCN12` (stereo not drawn) [Compound 121, 5-chloro-1′-[2-({3-oxo-1H,2H,3H,5H,6H,10bH-pyrrolo[2,1-a]isoquinolin-8-yl}oxy)ethyl]-1,2-dihydrospiro[indole-3,4′-piperidin]-2-one], the AC50 [1] was 508 nM, the EC50 [2, 4] was 81.2 nM and the EC50 [3, 5] was 249 nM.

`CNC(=O)N1Cc2ccc(OCCN3CCC4(CC3)C(=O)Nc3ccc(Cl)cc34)cc2C1` [Compound 61, 5-(2-{5-chloro-2-oxo-1,2-dihydrospiro[indole-3,4′-piperidin]-1′-yl}ethoxy)-N-methyl-2,3-dihydro-1H-isoindole-2-carboxamide] gave an AC50 [1] of 686 nM, an EC50 [2, 4] of 267 nM and an EC50 [3, 5] of 632 nM.

Work on `N#Cc1ccc2c(c1)C1(CCN(CCOc3ccc4c(c3)CCN3C(=O)CCC43)CC1)C(=O)N2` (stereo not drawn) [Compound 124, 2-oxo-1′-[2-({3-oxo-1H,2H,3H,5H,6H,10bH-pyrrolo[2,1-a]isoquinolin-8-yl}oxy)ethyl]-1,2-dihydrospiro[indole-3,4′-piperidine]-5-carbonitrile] yielded an AC50 [1] of 727 nM, an EC50 [2, 4] of 297 nM and an EC50 [3, 5] of 920 nM.

`CC(COc1ccc2c(c1)CCC(=O)N2C)N1CCC2(CC1)C(=O)Nc1ccc(C#N)cc12` (stereo not drawn) [Compound 202, 1′-{1-[(1-methyl-2-oxo-1,2,3,4-tetrahydroquinolin-6-yl)oxy]propan-2-yl}-2-oxo-1,2-dihydrospiro[indole-3,4′-piperidine]-5-carbonitrile] showed an AC50 [1] of 1720 nM, an EC50 [2, 4] of 315 nM and an EC50 [3, 5] of 2550 nM.

`CN1C(=O)C2(CCN(CCOc3ccc(N4CCCC4=O)cc3)CC2)c2ccccc21` [Compound 37, 1-methyl-1′-{2-[4-(2-oxopyrrolidin-1-yl)phenoxy]ethyl}-1,2-dihydrospiro[indole-3,4′-piperidin]-2-one] gave an AC50 [1] of 327 nM, an EC50 [2, 4] of 1280 nM and an EC50 [3, 5] of 692 nM.

With `CC(COc1ccc(S(C)(=O)=O)cc1)N1CCC2(CC1)C(=O)Nc1ccccc12` (stereo not drawn) [Compound 28, 1′-(1-(4-(methylsulfonyl)phenoxy)propan-2-yl)spiro[indoline-3,4′-piperidin]-2-one] the AC50 [1] was < 434 nM, the EC50 [2, 4] was 799 nM and the EC50 [3, 5] was 655 nM.

In the case of `CS(=O)(=O)c1ccc(OCCN2CCC3(CC2)C(=O)Nc2ccc(C#N)cc23)cc1C(F)CF` (stereo not drawn) [Compound 220, 1′-{2-[3-(1,2-difluoroethyl)-4-methanesulfonyl-phenoxy]ethyl}-2-oxo-1,2-dihydrospiro [indole-3,4′-piperidine]-5-carbonitrile], the AC50 [1] is reported as 679 nM, the EC50 [2, 4] is reported as 53 nM and the EC50 [3, 5] is reported as 301 nM.

With `CN1C(=O)C2(CCN(CCOc3ccc4c(c3)CCN(S(C)(=O)=O)C4)CC2)c2ccccc21` [Compound 55, 1′-{2-[(2-methanesulfonyl-1,2,3,4-tetrahydroisoquinolin-6-yl)oxy]ethyl}-1-methyl-1,2-dihydrospiro[indole-3,4′-piperidin]-2-one] the AC50 [1] was < 284 nM, the EC50 [2, 4] was 983 nM and the EC50 [3, 5] was 1210 nM.

`CC(COc1ccc(S(C)(=O)=O)cc1)N1CCC2(CC1)C(=O)N(C1CC(O)C1)c1ccc(Cl)cc12` (single isomer, unassigned) [Compound 209, 5-chloro-1′-[(2R) or (2S)-1-(4-methanesulfonylphenoxy)propan-2-yl]-1-[(trans) or (cis)-3-hydroxycyclobutyl]-1,2-dihydrospiro[indole-3,4′-piperidin]-2-one] was tested, and the AC50 [1] was 1240 nM, the EC50 ([2]; HEK293 overexpressing APOL1 G2) was 3070 nM and the EC50 [3, 6] was > 2840 nM.

For `N#Cc1ccc2c(c1)C1(CCN(CCOc3ccc4c(c3)CCN3C(=O)CCC43)CC1)C(=O)N2` (single isomer, unassigned) [Compound 125, (S) or (R)-2-oxo-1′-[2-({3-oxo-1H,2H,3H,5H,6H,10bH-pyrrolo[2,1-a]isoquinolin-8-yl}oxy)ethyl]-1,2-dihydrospiro[indole-3,4′-piperidine]-5-carbonitrile], the AC50 [1] was 729 nM, the EC50 [2, 4] was 355 nM and the EC50 [3, 6] was > 4860 nM.

Work on `Cc1nc2cc(OCCN3CCC4(CC3)C(=O)Nc3ccc(Cl)cc34)cnc2n1[C@H]1C[C@@](C)(O)C1` [Compound 451, 5-chloro-1′-[2-({2-methyl-3-[(cis)-3-hydroxy-3-methylcyclobutyl]-3H-imidazo[4,5-b]pyridin-6-yl}oxy)ethyl]-1,2-dihydrospiro[indole-3,4′-piperidin]-2-one] yielded an AC50 [1] of 459 nM, an EC50 [2, 4] of 32.1 nM and an EC50 [3, 5] of 115 nM.

Compound `C[C@]1(O)C[C@@H](n2cnc3cc(OCCN4CCC5(CC4)C(=O)Nc4ccc(Cl)cc45)cc(OC(F)F)c32)C1` [Compound 447, 5-chloro-1′-(2-{[7-(difluoromethoxy)-1-[(cis)-3-hydroxy-3-methylcyclobutyl]-1H-1,3-benzodiazol-5-yl]oxy}ethyl)-1,2-dihydrospiro[indole-3,4′-piperidin]-2-one] has an AC50 [1] of 1130 nM, an EC50 [2, 4] of 34.1 nM and an EC50 [3, 5] of 64.3 nM.
